Reference: US7863449B2, “Modulators of muscarinic receptors” (Vertex Pharmaceuticals Incorporated, priority 2004, dated 2011)

Assays:
M1 muscarinic receptor = target: T1, M1 muscarinic receptor (Homo sapiens, UniProt P11229); experiment: Functional mobilization of intracellular calcium (FLIPR), M1-CHO cells; type: cell-based; conditions: for Emax: 100% efficacy is the maximum response obtained using Carbachol as a control; for M1 Activity: M1-CHO cells, FLIPR calcium mobilization
T1 construct: expressed in transfected cells; host or cells: CHO (M1-CHO)
T1 sequence (P11229 1-460): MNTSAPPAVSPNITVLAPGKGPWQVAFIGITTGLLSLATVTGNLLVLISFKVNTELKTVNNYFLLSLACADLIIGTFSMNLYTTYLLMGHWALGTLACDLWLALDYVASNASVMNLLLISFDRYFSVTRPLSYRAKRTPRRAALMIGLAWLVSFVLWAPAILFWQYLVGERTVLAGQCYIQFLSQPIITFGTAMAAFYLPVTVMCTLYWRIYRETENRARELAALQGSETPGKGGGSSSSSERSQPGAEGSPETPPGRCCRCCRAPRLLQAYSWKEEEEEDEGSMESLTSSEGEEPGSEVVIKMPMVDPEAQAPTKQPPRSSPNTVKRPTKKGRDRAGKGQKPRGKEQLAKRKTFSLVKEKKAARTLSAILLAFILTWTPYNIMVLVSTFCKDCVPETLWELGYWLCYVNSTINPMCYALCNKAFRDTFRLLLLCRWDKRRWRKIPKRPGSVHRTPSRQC
In short: (§1)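 CHO cells expressing M1 or M4, loaded with Fluo-3 AM or Calcium 3 dye with 1 mM probenecid, 0.5% DMSO final. Agonist mode: compound added directly; antagonist mode: 15 min pre-incubation (or co-application) before carbachol at EC80. Fluorescence recorded 60 s on FLIPR.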

M4 muscarinic receptor = target: T2, M4 muscarinic receptor (Homo sapiens, UniProt P08173); experiment: Functional mobilization of intracellular calcium (FLIPR), M4-CHO cells; type: cell-based; conditions: for Emax: 100% efficacy is the maximum response obtained using Carbachol as a control; for M4 Activity: M4-CHO cells, FLIPR calcium mobilization
T2 construct: expressed in transfected cells; host or cells: CHO (M4-CHO)
T2 sequence (P08173 1-479): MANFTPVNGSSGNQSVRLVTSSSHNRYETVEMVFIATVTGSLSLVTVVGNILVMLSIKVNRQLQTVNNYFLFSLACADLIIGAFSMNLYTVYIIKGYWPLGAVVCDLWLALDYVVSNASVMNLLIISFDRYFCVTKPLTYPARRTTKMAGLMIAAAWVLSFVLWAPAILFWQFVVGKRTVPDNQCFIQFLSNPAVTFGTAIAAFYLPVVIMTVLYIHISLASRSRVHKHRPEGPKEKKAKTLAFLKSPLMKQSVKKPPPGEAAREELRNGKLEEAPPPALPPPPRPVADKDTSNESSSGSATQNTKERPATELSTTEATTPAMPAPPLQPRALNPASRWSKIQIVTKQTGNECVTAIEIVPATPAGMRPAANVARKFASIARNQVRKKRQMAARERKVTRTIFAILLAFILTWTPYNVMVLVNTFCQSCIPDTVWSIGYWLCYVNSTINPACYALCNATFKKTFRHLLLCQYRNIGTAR
In short: as §1

Compound	Emax (M1 muscarinic receptor)	M1 Activity (M1 muscarinic receptor)	Emax (M4 muscarinic receptor)	M4 Activity (M4 muscarinic receptor)
CCOC(=O)N1CCC(N2CCC3(CC2)CN(C(=O)c2cnon2)Cc2ccccc23)CC1 [compound 225]	25 to 100%	+++ (activity was measured to be less than 1.0 μM)	25 to 100%	+++ (activity was measured to be less than 1.0 μM)
O=C1c2ccccc2C2(CCN([C@@H]3C[C@@H]4CC[C@@H]3C4)CC2)N1Cc1ccccc1 [compound 227]	< 25%	+ (activity was measured to be greater than 5.0 μM)	< 25%	+ (activity was measured to be greater than 5.0 μM)
CCOC(=O)N1CCC(N2CCC3(CC2)CN(C(=O)CC(C)C)Cc2ccccc23)CC1 [compound 229]	25 to 100%	+++ (activity was measured to be less than 1.0 μM)	25 to 100%	+++ (activity was measured to be less than 1.0 μM)
CCOC(=O)N1CCC(N2CCC3(CC2)OC(=O)c2cc(Cl)ccc23)CC1 [compound 230]	25 to 100%	+++ (activity was measured to be less than 1.0 μM)	25 to 100%	++ (activity was measured to be from 1.0 μM to 5.0 μM)
CCOC(=O)N1C2CCC1CC(N1CCC3(CC1)CN(C(=O)Nc1c(C)noc1C)Cc1ccccc13)C2.Cl (stereo not shown) [compound 233, Ethyl 3-(2-(3,5-dimethylisoxazol-4-ylcarbamoyl)-2,3-dihydro-1H -spiro[isoquinoline-4,4′-piperidine]-1′-yl)-8-azabicyclo[3.2.1]octane-8-carboxylate hydrochloride]	25 to 100%	+++ (activity was measured to be less than 1.0 μM)	25 to 100%	+++ (activity was measured to be less than 1.0 μM)
CCOC(=O)N1CCC(N2CCC3(CC2)CN(C(=O)OC)Cc2ccccc23)CC1 [compound 240]	25 to 100%	+++ (activity was measured to be less than 1.0 μM)	25 to 100%	+++ (activity was measured to be less than 1.0 μM)
CC(C)OC(=O)N1C2CCC1CC(N1CCC3(CC1)CN(S(=O)(=O)N(C)C)Cc1ccccc13)C2 (stereo not shown) [compound 241]	25 to 100%	+++ (activity was measured to be less than 1.0 μM)	25 to 100%	+++ (activity was measured to be less than 1.0 μM)
CCOC(=O)N1CCC(N2CCC3(CC2)CN(C(=O)N(CC)CC)Cc2ccccc23)CC1 [compound 242]	25 to 100%	+++ (activity was measured to be less than 1.0 μM)	< 25%	+ (activity was measured to be greater than 5.0 μM)
CC(=O)N1Cc2ccccc2C2(CCN(CC3CCN(C(=O)O[C@H]4CCOC4)CC3)CC2)C1 [compound 243]	< 25%	+ (activity was measured to be greater than 5.0 μM)	< 25%	+ (activity was measured to be greater than 5.0 μM)
CCOC(=O)N1C2CCC1CC(N1CCC3(CC1)CN(C(=O)C1(C)CC1)Cc1ccccc13)C2 (stereo not shown) [compound 244]	25 to 100%	+++ (activity was measured to be less than 1.0 μM)	25 to 100%	+++ (activity was measured to be less than 1.0 μM)
CCOC(=O)N1C2CCC1CC(N1CCC3(CC1)CN(S(=O)(=O)c1ccc(-c4ccccc4)cc1)Cc1ccccc13)C2 (stereo not shown) [compound 245]	25 to 100%	++ (activity was measured to be from 1.0 μM to 5.0 μM)	25 to 100%	++ (activity was measured to be from 1.0 μM to 5.0 μM)
CCOC(=O)N1C2CCC1CC(N1CCC3(CC1)CN(S(=O)(=O)c1c(C)noc1C)Cc1ccccc13)C2 (stereo not shown) [compound 246]	25 to 100%	+++ (activity was measured to be less than 1.0 μM)	> 100%	+++ (activity was measured to be less than 1.0 μM)
CC(=O)N1Cc2ccccc2C2(CCN(Cc3cccc(F)c3)CC2)C1 [compound 247]	< 25%	+ (activity was measured to be greater than 5.0 μM)	< 25%	+ (activity was measured to be greater than 5.0 μM)
COCCOC(=O)N1C2CCC1CC(N1CCC3(CC1)CN(S(=O)(=O)N(C)C)Cc1ccccc13)C2 (stereo not shown) [compound 249]	25 to 100%	+++ (activity was measured to be less than 1.0 μM)	25 to 100%	+++ (activity was measured to be less than 1.0 μM)
CCOC(=O)N1CCC(N2CCC3(CC2)CN(C(=O)C2CCC2)Cc2ccccc23)CC1 [compound 250]	25 to 100%	+++ (activity was measured to be less than 1.0 μM)	25 to 100%	+++ (activity was measured to be less than 1.0 μM)
CCOC(=O)N1C2CCC1CC(N1CCC3(CC1)CN(S(=O)(=O)c1ccc(C(F)(F)F)cc1)Cc1ccccc13)C2 (stereo not shown) [compound 251]	25 to 100%	+++ (activity was measured to be less than 1.0 μM)	25 to 100%	+++ (activity was measured to be less than 1.0 μM)
CC(=O)N1Cc2ccccc2C2(CCN(CC3CCN(C(=O)OC4CCCC4)CC3)CC2)C1 [compound 252]	< 25%	+ (activity was measured to be greater than 5.0 μM)	< 25%	+ (activity was measured to be greater than 5.0 μM)
CCOC(=O)N1C2CCC1CC(N1CCC3(CC1)CN(S(=O)(=O)c1cccc(Cl)c1)Cc1ccccc13)C2 (stereo not shown) [compound 253]	25 to 100%	+++ (activity was measured to be less than 1.0 μM)	25 to 100%	+++ (activity was measured to be less than 1.0 μM)
CCCOC(=O)N1Cc2ccccc2C2(CCN(C3CCN(C(=O)OCC)CC3)CC2)C1 [compound 254]	25 to 100%	+++ (activity was measured to be less than 1.0 μM)	25 to 100%	+++ (activity was measured to be less than 1.0 μM)
CCOCCN1CCC2(CC1)CN(C(C)=O)Cc1ccccc12 [compound 256]	< 25%		< 25%	
CC(=O)N1Cc2ccccc2C2(CCN(C3CCN(C(=O)OC4CCC4)CC3)CC2)C1 [compound 258]	25 to 100%	+++ (activity was measured to be less than 1.0 μM)	25 to 100%	+++ (activity was measured to be less than 1.0 μM)
CCOC(=O)N1CCC(N2CCC3(CC2)CN(C(=O)c2nc(C)oc2C)Cc2ccccc23)CC1 [compound 261]	25 to 100%	+++ (activity was measured to be less than 1.0 μM)	25 to 100%	+++ (activity was measured to be less than 1.0 μM)
CCOC(=O)N1CCC(CN2CCC3(CC2)CN(C(=O)OC2CCCC2)Cc2ccccc23)CC1 [compound 263]	25 to 100%	+++ (activity was measured to be less than 1.0 μM)	25 to 100%	+++ (activity was measured to be less than 1.0 μM)
CC(=O)N1Cc2ccccc2C2(CCN(CC3CCCOC3)CC2)C1 (stereo not shown) [compound 266]	< 25%	+ (activity was measured to be greater than 5.0 μM)	< 25%	+ (activity was measured to be greater than 5.0 μM)
O=C1NC2(CCN(CC3CC4C=CC3C4)CC2)c2ccccc21 (stereo not shown) [compound 267, 1′-(bicyclo[2.2.1]hept-5-en-2-ylmethyl)spiro[isoindoline-1,4′-piperidin]-3-one]	25 to 100%	++ (activity was measured to be from 1.0 μM to 5.0 μM)	25 to 100%	++ (activity was measured to be from 1.0 μM to 5.0 μM)
CC(=O)N1Cc2ccccc2C2(CCN(C3CCSCC3)CC2)C1 [compound 268]	25 to 100%	++ (activity was measured to be from 1.0 μM to 5.0 μM)	25 to 100%	++ (activity was measured to be from 1.0 μM to 5.0 μM)
CCOC(=O)N1CCC(CN2CCC3(CC2)CN(C(=O)C(C)C)Cc2ccccc23)CC1 [compound 270]	25 to 100%	+++ (activity was measured to be less than 1.0 μM)	25 to 100%	+++ (activity was measured to be less than 1.0 μM)
